# According to BindingDB's records for doi:10.1016/0960-894X(96)00356-3 (1996):
# Target: Tissue alpha-L-fucosidase (Bos taurus)
# Test: Compound was tested for the inhibitory activity against alpha-L-fucosidase from bovine epididymis
row,SMILES,Ki [µM]
1,"CSC1SC(C)C(O)C(O)C1O [(3R,4S,5S)-2-Methyl-6-methylsulfanyl-tetrahydro-thiopyran-3,4,5-triol]",2300
2,"COC1SC(C)C(O)C(O)C1O [(3S,4S,5R)-2-Methoxy-6-methyl-tetrahydro-thiopyran-3,4,5-triol]",690

# Stronger by Ki, values ahead:
row,Ki [µM],SMILES
1,406,"CC1SC(OP(=O)(O)O)C(O)C(O)C1O [Sodium; Phosphoric acid mono-((3S,4S,5R)-3,4,5-trihydroxy-6-methyl-tetrahydro-thiopyran-2-yl) ester]"
2,118,"CC1SC(Oc2ccc([N+](=O)[O-])cc2)C(O)C(O)C1O [(3R,4S,5S)-2-Methyl-6-(4-nitro-phenoxy)-tetrahydro-thiopyran-3,4,5-triol]"
3,33,"CC1SC(OP(=O)(O)OCc2ccccc2)C(O)C(O)C1O (stereo unspecified) [Sodium; benzyl 3,4,5-trihydroxy-6-methyltetrahydro-2H-thiopyran-2-yl hydrogen phosphate]"
4,3.3,"CC1SC(Sc2ccc([N+](=O)[O-])cc2)C(O)[C@H](O)C1O (stereo partly drawn) [(R)-2-Methyl-6-(4-nitro-phenylsulfanyl)-tetrahydro-thiopyran-3,4,5-triol]"
